Reference: ChEMBL document CHEMBL1158234, “Halistanol disulfate B, a novel sulfated sterol from the sponge Pachastrella sp.: inhibitor of endothelin converting enzyme” (J Nat Prod, 1996)
pIC50: −log10 of the molar value. Calls of active or inactive are those of the source. The calls are words filed in the database; no cut-off is given here.

Legend:
COS = assay: (§1) Inhibition of recombinant ECE expressed in african green monkey COS cells assessed as endothelin formation by EIA assay; assay type: cell-based
[1] = as §1; assay type: cell-based

| SMILES | Activity (COS) | pIC50 [1] |
| --- | --- | --- |
| O=C(NCCSSCCNC(=O)/C(Cc1ccc(Br)c(OS(=O)(=O)O)c1)=N/O)/C(Cc1ccc(OS(=O)(=O)O)c(Br)c1)=N/O | Active | – |
| C=CCCC[C@@H](C)[C@H]1CC[C@H]2[C@@H]3CC[C@H]4C[C@H](O)[C@@H](O)C[C@]4(C)[C@H]3CC[C@]12C | inactive | – |
| C[C@H](CC[C@H](C)C(C)(C)C)[C@H]1CC[C@H]2[C@@H]3C[C@H](OS(=O)(=O)O)[C@H]4C[C@H](OS(=O)(=O)O)[C@@H](OS(=O)(=O)O)C[C@]4(C)[C@H]3CC[C@]12C | Active | – |
| O=C(NCCSSCCNC(=O)/C(Cc1cccc(OS(=O)(=O)O)c1Br)=N/O)/C(Cc1cc(Br)c(O)c(-c2ccc(C/C(=N\O)C(=O)NCCSSCCNC(=O)/C(Cc3ccc(OS(=O)(=O)O)c(Br)c3)=N/O)c(Br)c2O)c1)=N/O | Active | – |
| C=CCCC[C@@H](C)[C@H]1CC[C@H]2[C@@H]3CC[C@H]4C[C@H](OS(=O)(=O)O)[C@@H](OS(=O)(=O)O)C[C@]4(C)[C@H]3CC[C@]12C [HALISTANOL DISULFATE B] | – | 5.68 |
